# Reference: patent publication US8685935B2, “Use of flavonoids to increase the bioavailability of hesperetin” (Nestec S.A., priority 2009, dated 2014)
# System: Caco-2 cell monolayers
# Assay: Caco-2 cell monolayer Transwell model: formation and transport of hesperetin and its conjugates
# Assay type: in vitro ADME
# Conditions: 120 minutes upon exposure to 10 μM (5 nmol) hesperetin added to the apical compartment
# Description: Caco-2 cell monolayers were grown on permeable filters that divide a two-compartment cell culture system. Although originally derived from a colonic adenoma carcinoma, differentiating Caco-2 cells are known to display morphological and biochemical properties of intestinal enterocytes including the formation of a polarized layer with expression of ABC transport proteins including Pgp, MRP1, MRP2 and BCRP and metabolizing enzymes.
# Using the Caco-2 cell monolayer Transwell model in which the cells in the apical compartment were exposed to hesperetin, or combinations of hesperetin and other flavonoids, we studied the formation and transport of intestinal hesperetin conjugates, which were formed by the Caco-2 cells. 120 minutes upon exposure to 10 μM (5 nmol) hesperetin added to the apical compartment. […] These metabolites were identified as hesperetin 7-O-glucuronide and hesperetin 7-O-sulfate.
row,Compound,amount of metabolite in apical compartment compared to basolateral
1,COc1ccc([C@@H]2CC(=O)c3c(O)cc(O[C@@H]4O[C@H](C(=O)O)[C@@H](O)[C@H](O)[C@H]4O)cc3O2)cc1O [hesperetin 7-O-glucuronide],detected at much higher amounts in the apical compartment compared to the basolateral
2,COc1ccc([C@@H]2CC(=O)c3c(O)cc(OS(=O)(=O)O)cc3O2)cc1O [hesperetin 7-O-sulfate],detected at much higher amounts in the apical compartment compared to the basolateral
